Source: patent EP3390415B1, “(R)- AND (S)-1-(3-(3-N,N-DIMETHYLAMINOCARBONYL)PHENOXYL-4-NITROPHENYL)-1-ETHYL-N,N'-BIS (ETHYLENE)PHOSPHORAMIDATE, COMPOSITIONS AND METHODS FOR THEIR USE AND PREPARATION” (OBI PHARMA, INC., priority 2015, dated 2017)
Read-outs that look alike come from different tables or passages of the source.

Tests used:
HepG2 = assay: In vitro human tumor cell line cytotoxicity assay; assay type: cell-based; settings: for IC50: Homo sapiens
C3A = assay: In vitro human tumor cell line cytotoxicity assay; assay type: cell-based; settings: for IC50: Homo sapiens
Recombinant human AKR1C3 = Recombinant human AKR1C3 (Homo sapiens, UniProt P42330); assay: Activation by the aldoketo reductase AKR1C3; assay type: biochemical; settings: 5 µM, 2 mM NADPH, 37 °C, up to 120 min; FIG. 2
Chain of Recombinant human AKR1C3 (P42330 whole entry): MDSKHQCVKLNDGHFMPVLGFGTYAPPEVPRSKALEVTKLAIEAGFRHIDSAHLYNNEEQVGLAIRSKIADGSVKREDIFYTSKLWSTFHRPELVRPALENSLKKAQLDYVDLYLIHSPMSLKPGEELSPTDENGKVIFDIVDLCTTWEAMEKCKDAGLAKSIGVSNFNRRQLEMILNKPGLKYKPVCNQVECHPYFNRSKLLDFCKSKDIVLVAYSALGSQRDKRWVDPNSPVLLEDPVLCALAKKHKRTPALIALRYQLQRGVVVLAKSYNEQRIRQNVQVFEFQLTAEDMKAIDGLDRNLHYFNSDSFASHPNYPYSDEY
Procedure: Recombinant human AKR1C3 was diluted to 25 µg/mL in phosphate buffered saline (PBS), pH 7.4 (37 °C), containing 2 mM NADPH. TH2870 or progesterone (positive control) in 30% methanol/70% water was added to the reaction mixture at a final concentration of 5 µM and incubated at 37 °C for 120 minutes. At various times up to 120 min, 50 µL of the reaction mixture was taken and 200 µL acetonitrile containing propranolol as internal standard was added, vortex-mixed and centrifuged for 10 min. The resulting supernatant (5 µL) was injected into a LC/MS/MS for quantitation of % remaining TH 2870 and progesterone. The compounds were tested in duplicates.

H460 cells = assay: In vitro proliferation assay, H460; assay type: cell-based; settings: Homo sapiens, NCI-H460; 2 hrs exposure, wash, additional 70hrs, AlamarBlue; read-out: IC 50 in proliferation assay in H460 cells
Procedure: In vitro proliferation data on the H460 […] human tumor cell line is reported above in the compound table. IC50 values are reported in micromolar and result from exposure of compound at various concentrations for 2 hrs followed by a wash step and addition of fresh media followed by growth and cell viability staining and comparison to a media only treated control.
Specifically, exponentially growing cells were seeded at a density of 4 x 10^3 cells per well in a 96 well plate and incubated at 37°C in 5% CO2, 95% air and 100% relative humidity for 24 hours prior to addition of test compounds. Compounds were solubilized in 100% DMSO at 200 times the desired final test concentration. At the time of drug addition, compounds were further diluted to 4 times the desired final concentration with complete medium. Aliquots of 50 µl of compound at specified concentrations were added to microtiter wells already containing 150 µl of medium, resulting in the final drug concentration reported. After drug addition, the plates were incubated for an additional 2 hours at 37°C, 5% CO2, 95% air, and 100% relative humidity, then the drug was washed off and fresh medium was added and the plates were incubated for addition 70hrs at 37 °C, 5% CO2, 95% air and 100% relative humidity. At the end of this incubation, the viable cells were quantified using the AlamarBlue assay. The drug concentration resulting in growth inhibition of 50% (IC50) was calculated using Prism software (Irvine, CA), and the results were listed in the table.

SNU-387 = assay: In vitro human tumor cell line cytotoxicity assay; assay type: cell-based; settings: for IC50: Homo sapiens
Vcap = assay: In vitro human tumor cell line cytotoxicity assay; assay type: cell-based; settings: for IC50: Homo sapiens, VCaP
LIXC012 = assay: In vitro human tumor cell line cytotoxicity assay; assay type: cell-based; settings: for IC50: Homo sapiens
HCCC9810 = assay: In vitro human tumor cell line cytotoxicity assay; assay type: cell-based; settings: for IC50: Homo sapiens
[1] = system: A375 melanoma human tumor xenograft; assay: In vivo human tumor xenograft model, antitumor activity; set-up: species or system nude mice; settings: 20mpk,qdx5x2,ip
Text: Specific pathogen-free homozygous female nude mice (nu/nu, Charles River Laboratories) were used. Mice were given food and water ad libitum and housed in microisolator cages. Four to six week old animals were identified by microchips (Locus Technology, Manchester, MD, USA) at the time of the experiments. All animal studies were approved by the Institutional Animal Care and Use Committee at Threshold Pharmaceuticals, Inc.
All cell lines were from the American Type Culture Collection (ATCC, Rockville, MD, USA).
Cells were mixed with Matrigel (30% in H460) and 0.2 ml per mouse were subcutaneously implanted to the flank area of the animals. When tumor size reached 100-150 mm^3, mice were randomized into experimental or vehicle groups with 10 mice/group and treatment was started (Day 1). The tested compounds were formulated in 5% DMSO in D5W. All compounds were given by IP, QDx5/wk (5 days on, 2 days off) as one cycle, for a total of 2 cycles. Tumor growth and body weight were measured twice a week. Tumor volume was calculated as (length x width^2)/2. Drug efficacy was assessed as Tumor Growth Inhibition (TGI) and Tumor Growth Delay (TGD). TGI was defined as (1-ΔT/ΔC) x 100, where ΔT/ΔC presented the ratio of the change in mean (or median, if variation within the group was relatively large) tumor volume of the treated group and of the control group. TGD was calculated as the extra days for the treated tumor to reach 500mm^3 as compared to the control group. Animals were culled when individual tumor size reached over 2000mm^3 or mean tumor volume exceeded 1000mm^3 in the group. Data are expressed as the mean ± SEM. One-way analysis of variance with Dunnett post comparison test (GraphPad Prism 4) or two-tailed student's t-test were used for analysis. A P level < 0.05 was considered statistically significant.
This study employed an A375 melanoma human tumor xenograft model and the compounds provided herein were compared to thiotepa and the approved anti melanoma drug, Abraxane. […] Mpk refers to mg/kg.

PLCPRF5 = assay: In vitro human tumor cell line cytotoxicity assay; assay type: cell-based; settings: for IC50: Homo sapiens

CC(OP(=O)(N1CC1)N1CC1)c1ccc([N+](=O)[O-])c(Oc2cccc(C(=O)N(C)C)c2)c1 (racemic) [TH 2870, (R,S)-1-(3-(3-N,N-dimethylaminocarbonyl)phenoxyl-4-nitrophenyl)-1-ethyl-N,N'-bis(ethylene)phosphoramidate]
Max Inhibition% (HepG2): 98.9% | Min Inhibition% (HepG2): 3.3% | IC50 (HepG2; read-out: AbsIC50): 6.4 nM | IC50 (HepG2; read-out: RelIC50): 5.5 nM | Max Inhibition% (C3A): 98.1% | Min Inhibition% (C3A): 8.1% | IC50 (C3A; read-out: AbsIC50): 6.2 nM | IC50 (C3A; read-out: RelIC50): 7.1 nM | disappearance of compound (% remaining) in the presence of AKR1C3 (Recombinant human AKR1C3): rapid disappearance | IC50 (H460 cells): 5 nM | Max Inhibition% (SNU-387): 102.8% | Min Inhibition% (SNU-387): 1.7% | IC50 (SNU-387; read-out: AbsIC50): 34 nM | IC50 (SNU-387; read-out: RelIC50): 42.2 nM | IC50 (Vcap; read-out: AbsIC50): 15.2 nM | IC50 (Vcap; read-out: RelIC50): 22.7 nM | Max Inhibition% (Vcap; Vcap): 100.2% | Min Inhibition% (Vcap; Vcap): -3.4% | Max Inhibition% (LIXC012): 87.1% | Min Inhibition% (LIXC012): 6.6% | IC50 (LIXC012; read-out: AbsIC50): 18.7 nM | IC50 (LIXC012; read-out: RelIC50): 27.4 nM | Max Inhibition% (HCCC9810): 95.4% | Min Inhibition% (HCCC9810): -2.6% | IC50 (HCCC9810; read-out: AbsIC50): 29.4 nM | IC50 (HCCC9810; read-out: RelIC50): 29.2 nM | TGD500, Days (vs. vehicle) [1]: >13 days | TGI [1]: 98.0% | Max Inhibition% (PLCPRF5): 53.3% | Min Inhibition% (PLCPRF5): -1.7% | IC50 (PLCPRF5; PLC-PRF-5, read-out: AbsIC50): 575 nM | IC50 (PLCPRF5; PLC-PRF-5, read-out: RelIC50): 474 nM
